Measured values published in PubChem BioAssay AID1963830 (Molecular Pharmacology Branch, DTP, NCI, 2024).

Tested on: 922993-354-T-J3-PDC complex spheroid viability
Assay: Anticancer human tumor 922993-354-T-J3-PDC patient-derived endometrial carcinoma cell line growth inhibition [POLQ]
Conditions: for IC50: curve of first compound; for viability, T/C: stronger effect = lower value
Summary of the method: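 Patient-derived tumour cells were co-cultured with HUVEC and mesenchymal stem cells as multicellular spheroids at 37 °C. They were treated with POLQ inhibitors (novobiocin, ART-558, RP6685) alone or combined with other agents. Top concentrations were at or near clinical Cmax (otherwise 10 microM; SN-38 at 1 microM), decreasing in half-log steps.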

[1] = second compound 0.0316 µM, first compound 0.0316 µM
[2] = second compound 0.0316 µM, first compound 0.1 µM
[3] = second compound 0.0316 µM, first compound 0.316 µM
[4] = second compound 0.0316 µM, first compound 1 µM
[5] = second compound 0.0316 µM, first compound 3.16 µM
[6] = second compound 0.0316 µM, first compound 10 µM
[7] = second compound 0.1 µM, first compound 0.0316 µM
[8] = second compound 0.1 µM, first compound 0.1 µM
[9] = second compound 0.1 µM, first compound 0.316 µM
[10] = second compound 0.1 µM, first compound 1 µM
[11] = second compound 0.1 µM, first compound 3.16 µM
[12] = second compound 0.1 µM, first compound 10 µM
[13] = second compound 0.316 µM, first compound 0.0316 µM
[14] = second compound 0.316 µM, first compound 0.1 µM
[15] = second compound 0.316 µM, first compound 0.316 µM
[16] = second compound 0.316 µM, first compound 1 µM
[17] = second compound 0.316 µM, first compound 3.16 µM
[18] = second compound 0.316 µM, first compound 10 µM
[19] = second compound 1 µM, first compound 0.0316 µM
[20] = second compound 1 µM, first compound 0.1 µM
[21] = second compound 1 µM, first compound 0.316 µM
[22] = second compound 1 µM, first compound 1 µM
[23] = second compound 1 µM, first compound 3.16 µM
[24] = second compound 1 µM, first compound 10 µM
[25] = second compound 3.16 µM, first compound 0.0316 µM
[26] = second compound 3.16 µM, first compound 0.1 µM
[27] = second compound 3.16 µM, first compound 0.316 µM
[28] = second compound 3.16 µM, first compound 1 µM
[29] = second compound 3.16 µM, first compound 3.16 µM
[30] = second compound 3.16 µM, first compound 10 µM
[31] = second compound 10 µM, first compound 0.0316 µM
[32] = second compound 10 µM, first compound 0.1 µM
[33] = second compound 10 µM, first compound 0.316 µM
[34] = second compound 10 µM, first compound 1 µM
[35] = second compound 10 µM, first compound 3.16 µM
[36] = second compound 10 µM, first compound 10 µM
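Note: spheroids exposed to the agents for one week.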
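Throughout, for viability, T/C: 100% = DMSO vehicle control wells.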

`CNCc1ccc(-c2[nH]c3cc(F)cc4c3c2CCNC4=O)cc1` + Cc1cccc(N(C)C(=O)C2C(O)CCN2c2nc(C)cc(C(F)(F)F)c2C#N)c1 showed an IC50 (second compound 0.0316 µM) greater than 10 µM, an IC50 (second compound 0.1 µM) greater than 10 µM and an IC50 (second compound 0.316 µM) greater than 10 µM. For the same compound, the IC50 (second compound 1 µM) was greater than 10 µM, the IC50 (second compound 3.16 µM) was greater than 10 µM and the IC50 (second compound 10 µM) was 8.53 µM. It also gave a viability, T/C [1] of 103%, a viability, T/C [2] of 101% and a viability, T/C [3] of 104%. For the same compound, the viability, T/C [4] was 99.5%, the viability, T/C [5] was 89.7% and the viability, T/C [6] was 82.9%. For the same compound, the viability, T/C [7] was 105%, the viability, T/C [8] was 101% and the viability, T/C [9] was 100%. It also gave a viability, T/C [10] of 107%, a viability, T/C [11] of 89.5% and a viability, T/C [12] of 90%. The viability, T/C [13] was 110%, the viability, T/C [14] was 105% and the viability, T/C [15] was 96.3%. For the same compound, the viability, T/C [16] was 97.4%, the viability, T/C [17] was 92.3% and the viability, T/C [18] was 86.7%. For the same compound, the viability, T/C [19] was 110%, the viability, T/C [20] was 100% and the viability, T/C [21] was 108%. It also gave a viability, T/C [22] of 90.8%, a viability, T/C [23] of 94.6% and a viability, T/C [24] of 90.6%. For the same compound, the viability, T/C [25] was 105%, the viability, T/C [26] was 104% and the viability, T/C [27] was 97%. It also gave a viability, T/C [28] of 90.8%, a viability, T/C [29] of 97.7% and a viability, T/C [30] of 82.8%. It also gave a viability, T/C [31] of 105%, a viability, T/C [32] of 101% and a viability, T/C [33] of 106%. For the same compound, the viability, T/C [34] was 87.8%, the viability, T/C [35] was 84.7% and the viability, T/C [36] was 44.1%.
`CCc1c2c(nc3ccc(O)cc13)-c1cc3c(c(=O)n1C2)COC(=O)[C@]3(O)CC` + COC1C(OC(N)=O)C(O)C(Oc2ccc3c(O)c(NC(=O)c4ccc(O)c(CC=C(C)C)c4)c(=O)oc3c2C)OC1(C)C showed an IC50 (second compound 0.0316 µM) of 0.00629 µM, an IC50 (second compound 0.1 µM) of 0.0082 µM and an IC50 (second compound 0.316 µM) of 0.00819 µM. The IC50 (second compound 1 µM) was 0.00748 µM, the IC50 (second compound 3.16 µM) was 0.00704 µM and the IC50 (second compound 10 µM) was 0.00752 µM. For the same compound, the viability, T/C (second compound 0.0316 µM, first compound 0.00316 µM) was 81.4%, the viability, T/C (second compound 0.0316 µM, first compound 0.01 µM) was 28.9% and the viability, T/C [1] was 14.3%. It also gave a viability, T/C [2] of 11.3%, a viability, T/C [3] of 13.4% and a viability, T/C [4] of 15.7%. It also gave a viability, T/C (second compound 0.1 µM, first compound 0.00316 µM) of 85.7%, a viability, T/C (second compound 0.1 µM, first compound 0.01 µM) of 42.6% and a viability, T/C [7] of 14.8%. For the same compound, the viability, T/C [8] was 12.7%, the viability, T/C [9] was 12.1% and the viability, T/C [10] was 17.8%. For the same compound, the viability, T/C (second compound 0.316 µM, first compound 0.00316 µM) was 85.5%, the viability, T/C (second compound 0.316 µM, first compound 0.01 µM) was 42.5% and the viability, T/C [13] was 12%. The viability, T/C [14] was 11.8%, the viability, T/C [15] was 11.8% and the viability, T/C [16] was 19.4%. For the same compound, the viability, T/C (second compound 1 µM, first compound 0.00316 µM) was 85.6%, the viability, T/C (second compound 1 µM, first compound 0.01 µM) was 37.9% and the viability, T/C [19] was 11.6%. It also gave a viability, T/C [20] of 9.81%, a viability, T/C [21] of 12.3% and a viability, T/C [22] of 16.5%. For the same compound, the viability, T/C (second compound 3.16 µM, first compound 0.00316 µM) was 76.3%, the viability, T/C (second compound 3.16 µM, first compound 0.01 µM) was 38.5% and the viability, T/C [25] was 15.2%. For the same compound, the viability, T/C [26] was 11.2%, the viability, T/C [27] was 14.2% and the viability, T/C [28] was 19.2%. It also gave a viability, T/C (second compound 10 µM, first compound 0.00316 µM) of 83.8%, a viability, T/C (second compound 10 µM, first compound 0.01 µM) of 38.8% and a viability, T/C [31] of 10%. For the same compound, the viability, T/C [32] was 10.3%, the viability, T/C [33] was 13.1% and the viability, T/C [34] was 17%.
Work on `CC(C)n1c(=O)n(C)c2cnc3cc(F)c(-c4ccc(OCCCN5CCCCC5)nc4)cc3c21` + Cc1cccc(N(C)C(=O)C2C(O)CCN2c2nc(C)cc(C(F)(F)F)c2C#N)c1 yielded an IC50 (second compound 0.0316 µM) greater than 10 µM, an IC50 (second compound 0.1 µM) greater than 10 µM and an IC50 (second compound 0.316 µM) greater than 10 µM. For the same compound, the IC50 (second compound 1 µM) was greater than 10 µM, the IC50 (second compound 3.16 µM) was greater than 10 µM and the IC50 (second compound 10 µM) was greater than 10 µM. The viability, T/C [1] was 101%, the viability, T/C [2] was 99.8% and the viability, T/C [3] was 99.9%. For the same compound, the viability, T/C [4] was 106%, the viability, T/C [5] was 97.4% and the viability, T/C [6] was 66.9%. It also gave a viability, T/C [7] of 95.3%, a viability, T/C [8] of 108% and a viability, T/C [9] of 108%. The viability, T/C [10] was 97.9%, the viability, T/C [11] was 81.3% and the viability, T/C [12] was 74.4%. It also gave a viability, T/C [13] of 114%, a viability, T/C [14] of 109% and a viability, T/C [15] of 104%. The viability, T/C [16] was 102%, the viability, T/C [17] was 88.2% and the viability, T/C [18] was 77%. It also gave a viability, T/C [19] of 114%, a viability, T/C [20] of 112% and a viability, T/C [21] of 110%. It also gave a viability, T/C [22] of 99.7%, a viability, T/C [23] of 90.7% and a viability, T/C [24] of 68.9%. The viability, T/C [25] was 100%, the viability, T/C [26] was 109% and the viability, T/C [27] was 102%. The viability, T/C [28] was 90.8%, the viability, T/C [29] was 95.5% and the viability, T/C [30] was 80.3%. The viability, T/C [31] was 101%, the viability, T/C [32] was 104% and the viability, T/C [33] was 107%. It also gave a viability, T/C [34] of 92.4%, a viability, T/C [35] of 92.3% and a viability, T/C [36] of 70.5%.
